Test results taken from EP4417607A1, “HETEROCYCLIC COMPOUND AS SOS1 INHIBITOR AND USES THEREOF” (Nanjing Zaiming Pharmaceutical Co., Ltd., priority 2021, dated 2023).

Assays:
[1] = test system: p-ERK pathway in H358 cells; test: p-ERK pathway inhibition in H358 cells (Advanced phospho-ERK (Thr202/Tyr204) cellular kit, HTRF); format: cell-based; settings: Homo sapiens, NCI-H358, 1 h compound incubation
Method in brief: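 Serum-starved H358 cells (50000/well, overnight) treated with compound for 1 h at 37 °C, then lysed; phospho-ERK (Thr202/Tyr204) read by HTRF (665/620 nm ratio). Cell-free wells set 100% inhibition, untreated cells 0%; IC50 fitted from 8 concentrations by four-parameter curve.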

H358 cells = test: H358 cell proliferation inhibition (CellTiter-Glo luminescent cell viability assay); format: cell-based; settings: Homo sapiens, NCI-H358, 168 h, 7 days
Method: The effect of the compounds of the present invention on H358 cell proliferation was assessed by CellTiter-Glo luminescent cell viability assay kit method.
H358 cells (ATCC, CRL-5807) were cultured in RPMI1640 (Hyclone, SH30256.01) complete medium containing 10% FBS (Gibco, 10100147) and 100 U/mL penicillin-streptomycin mixed solution (Gibco, 15140163). When the cells grew to 80-90%, the cells were digested, pipetted, and seeded in a 96-well plate (Corning, 4515) at 3000 cells/well (180 µL RPMI1640 complete medium), and then the 96-well plate was incubated overnight in an incubator at 37 °C with 5% CO2.
After incubation overnight, 20 µL of a diluted test compound was added to each well using a multi-channel pipette, and the 96-well plate was placed in an incubator at 37 °C with 5% CO2 for further culture. After 7 days, 100 µL of the supernatant was pipetted and discarded. 50 µL of CellTiter-Glo® 3D Cell Viability Assay liquid was added to each well. The plate was shaken at room temperature at 450 rpm for 30 min. After the cells were completely lysed, "Luminescence" on the microplate reader was selected for plate reading. In this experiment, the cell-free group (replaced with 1640 medium) was used as the 100% inhibition group, and the compound-free group in which the cell was added was used as the 0% inhibition group.
The inhibition percentage of H358 cell proliferation by the compounds of the present invention could be calculated by the following formula: [formula]
IC50 values of the compounds were calculated from 8 concentration points using XLfit (ID Business Solutions Ltd., UK) software by the following formula: Y = Bottom + (Top−Bottom)/(1+10^(∧)((logIC50−X)×slopefactor)) [formula]
Y is the inhibition percentage, X is the logarithmic value of the concentration of the test compound, Bottom is the minimum inhibition percentage, Top is the maximum inhibition percentage, and slope factor is the slope coefficient of the curve.

Row | SMILES | IC50 [1] [nM] | IC50 (H358 cells) [nM]
1 | Cc1nc(N[C@H](C)c2cccc(C(F)F)c2F)c2cn(C3(CF)CC3)c(=O)c(N3CCc4cn(C)nc4C3)c2n1 [Example 98, (R)-4-((1-(3-(difluoromethyl)-2-fluorophenyl)ethyl)amino)-6-(1-(fluoromethyl)cyclopropyl)-2-methyl-8-(2-methyl-2,4,5,7-tetrahydro-6H-pyrazolo[3,4-c]pyridin-6-yl)pyrido[4,3-d]pyrimidine-7(6H)-one] | 55.6 | 44
2 | COc1c(=O)n(C2(CF)CC2)cc2c(N[C@H](C)c3cccc(C(C)(F)F)c3F)nc(C)nc12 [Example 11, (R)-4-((1-(3-(1,1-difluoroethyl)-2-fluorophenyl)ethyl)amino)-6-(1-(fluoromethyl)cyclopropyl)-8-methoxy-2-methylpyrido[4,3-d]pyrimidine-7(6H)-one] | 88.2 | 50.8
3 | Cc1nc(N[C@H](C)c2cccc(C(F)F)c2F)c2cn(C3(CF)CC3)c(=O)c(C3(O)CCN(C4COC4)CC3)c2n1 [Example 145, (R)-4-((1-(3-(difluoromethyl)-2-fluorophenyl)ethyl)amino)-6-(1-(fluoromethyl)cyclopropyl)-8-(4-hydroxy-1-(oxetan-3-yl)piperidin-4-yl)-2-methylpyrido[4,3-d]pyrimidine-7(6H)-one] | 138 | 64.6
4 | Cc1nc(N[C@H](C)c2cccc(C(F)F)c2F)c2cn(C3(CF)CC3)c(=O)c(N3CCN(C(C)C)CC3)c2n1 [Example 94, (R)-4-((1-(3-(difluoromethyl)-2-fluorophenyl)ethyl)amino)-6-(1-(fluoromethyl)cyclopropyl)-8-(4-isopropylpiperazin-1-yl)-2-methylpyrido[4,3-d]pyrimidine-7(6H)-one] | 60.9 | 16.8
5 | Cc1nc(N[C@H](C)c2cccc(C(F)F)c2F)c2cn(C3(CF)CC3)c(=O)c(N3[C@@H](C)COC[C@@H]3C)c2n1 [Example 127, 4-(((R)-1-(3-(difluoromethyl)-2-fluorophenyl)ethyl)amino)-8-((3S,5S)-3,5-dimethylmorpholinyl)-6-(1-(fluoromethyl)cyclopropyl)-2-methylpyrido[4,3-d]pyrimidine-7(6H)-one] | 72.5 | 90
6 | Cc1nc(N[C@H](C)c2cccc(C(F)F)c2F)c2cn(C3(CF)CC3)c(=O)c(N3CCOC[C@@H]3CO)c2n1 [Example 135, 4-(((R)-1-(3-(difluoromethyl)-2-fluorophenyl)ethyl)amino)-6-(1-(fluoromethyl)cyclopropyl)-8-((S)-3-(hydroxymethyl)morpholinyl)-2-methylpyrido[4,3-d]pyrimidine-7(6H)-one] | 59 | 65.2
7 | Cc1nc(N[C@H](C)c2cccc(C(F)F)c2F)c2cn(C3(CF)CC3)c(=O)c(N(C)c3cnn(C)c3)c2n1 [Example 65, (R)-4-((1-(3-(difluoromethyl)-2-fluorophenyl)ethyl)amino)-6-(1-(fluoromethyl)cyclopropyl)-2-methyl-8-(methyl(1-methyl-1H-pyrazol-4-yl)amino)pyrido[4,3-d]pyrimidine-7(6H)-one] | 27 | 66.4
8 | [2H]C([2H])([2H])[C@@H](Nc1nc(C)nc2c(N3CCOC[C@@H]3C)c(=O)n(C3(CF)CC3)cc12)c1cccc(C(F)F)c1F [Example 113, 4-(((R)-1-(3-(difluoromethyl)-2-fluorophenyl)ethyl-2,2,2-d3)amino)-6-(1-(fluoromethyl)cyclopropyl)-2-methyl-8-((S)-3-methylmorpholine)pyrido[4,3-d]pyrimidine-7(6H)-one] | 70 | 15.6
9 | Cc1nc(N[C@H](C)c2cccc(C#N)c2C)c2cn(C3(CF)CC3)c(=O)c(N3CCOCC3)c2n1 [Example 47] | 37.5 | 23.7
10 | Cc1nc(N[C@H](C)c2cccc(C(F)F)c2F)c2cn(C3(CF)CC3)c(=O)c(N3CCN(CC4(C)COC4)CC3)c2n1 [Example 109, (R)-4-((1-(3-(difluoromethyl)-2-fluorophenyl)ethyl)amino)-6-(1-(fluoromethyl)cyclopropyl)-2-methyl-8-(4-((3-methyloxetan-3-yl)methyl)piperazin-1-yl)pyrido[4,3-d]pyrimidine-7(6H)-one] | 35.5 | 23.7
11 | Cc1nc(N[C@H](C)c2cccc(C(F)F)c2F)c2cn(C3(CF)CC3)c(=O)c(-c3cnn4c3COCC4)c2n1 [Example 176] | 126 | 132

More lines, in order of falling IC50 [1], values ahead:

Row | IC50 [1] [nM] | IC50 (H358 cells) [nM] | SMILES
12 | 75.6 | 52.7 | Cc1nc(N[C@H](C)c2cccc(C#N)c2C)c2cn(C3(CF)CC3)c(=O)c(N3CCOCC3(C)C)c2n1 [Example 171, (R)-3-(1-((8-(3,3-dimethylmorpholinyl)-6-(1-(fluoromethyl)cyclopropyl)-2-methyl-7-oxo-6,7-dihydropyrido[4,3-d]pyrimidin-4-yl)amino)ethyl)-2-methylbenzonitrile]
13 | 72.4 | 73.8 | Cc1nc(N[C@H](C)c2cccc(C(F)F)c2F)c2cn(C3(CF)CC3)c(=O)c(Oc3ccnc(C#N)c3)c2n1 [Example 72, (R)-4-((4-((1-(3-(difluoromethyl)-2-fluorophenyl)ethyl)amino)-6-(1-(fluoromethyl)cyclopropyl)-2-methyl-7-oxo-6,7-dihydropyrido[4,3-d]pyrimidin-8-yl)oxy)pyridinecarbonitrile]
14 | 54.6 | 72.1 | Cc1nc(N[C@H](C)c2cccc(C(F)F)c2F)c2cn(C3(CF)CC3)c(=O)c(OC(F)F)c2n1 [Example 119, (R)-8-(difluoromethoxy)-4-((1-(3-(difluoromethyl)-2-fluorophenyl)ethyl)amino)-6-(1-(fluoromethyl)cyclopropyl)-2-methylpyrido[4,3-d]pyrimidine-7(6H)-one]
15 | 42.4 | 17.4 | Cc1nc(N[C@H](C)c2cccc(C(F)(F)F)c2C)c2cn(C3(CF)CC3)c(=O)c(N3CCOC[C@@H]3C)c2n1 [Example 56, 6-(1-(fluoromethyl)cyclopropyl)-2-methyl-4-(((R)-1-(2-methyl-3-(trifluoromethyl)phenyl)ethyl)amino)-8-((S)-3-methylmorpholine)pyrido[4,3-d]pyrimidine-7(6H)-one]
16 | 38.7 | 32.7 | Cc1nc(N[C@H](C)c2cccc(C(F)F)c2F)c2cn(C3(CF)CC3)c(=O)c(N3CCOC[C@H]3C)c2n1 [Example 39, 4-(((R)-1-(3-(difluoromethyl)-2-fluorophenyl)ethyl)amino)-6-(1-(fluoromethyl)cyclopropyl)-2-methyl-8-((R)-3-methylmorpholine)pyrido[4,3-d]pyrimidine-7(6H)-one]
17 | 34.8 | 15.8 | Cc1nc(N[C@H](C)c2cccc(C(F)F)c2F)c2cn(C3(CF)CC3)c(=O)c(N3CCN(C4(C)COC4)CC3)c2n1 [Example 143]
18 | 18.9 | 31.4 | Cc1nc(N[C@H](C)c2cccc(C(F)F)c2F)c2cn(C3(CF)CC3)c(=O)c(N3CCC(C)(O)CC3)c2n1 [Example 45, (R)-4-((1-(3-(difluoromethyl)-2-fluorophenyl)ethyl)amino)-6-(1-(fluoromethyl)cyclopropyl)-8-(4-hydroxy-4-methylpiperidin-1-yl)-2-methylpyrido[4,3-d]pyrimidine-7(6H)-one]
